The text below walks through data of patent US4013794A, “O-alkyl-S-alkyl-O-phenyl phosphates and insecticidal and acaricidal method of use” (priority 1973, dated 1977).

Data set [1] deals with warm-blooded animals. Conditions: prior-art compounds; cited from earlier work.
Data set [2] concerns two-spotted spider mite (Tetranychus urticae). Briefly: Tetranychus test (resistant). Format: in vivo. Conditions: 48 h, after 2 days, read-out: Degree of destruction in % after 2 days; for mortality at 0.01 % strength: 0.01 % active compound concentration; for mortality at 0.1 % strength: 0.1 % active compound concentration. How it is done: Solvent: 3 parts by weight of acetone
Emulsifier: 1 part by weight of alkylaryl polyglycol ether
To produce a suitable preparation of active compound, 1 part by weight of the active compound was mixed with the stated amount of solvent and the stated amount of emulsifier and the concentrate was diluted with water to the desired concentration.
These bean plants were heavily infested with the two-spotted spider mite (Tetranychus urticae) in all stages of development.
After the specified periods of time, the effectiveness of the preparation of active compounds was determined by counting the dead mites. The degree of destruction thus obtained is expressed as a percentage: 100% means that all the spider mites were killed, whereas 0% means that none of the spider mites were killed.

Data set [3] can be described thus: Toxicity test (peroral), albino rat. Conditions: in vivo, po, evaluation after 7 days, read-out: LD50 values (in mg/kg of body weight). The method, then: Test animal: Albino rat (Rattus norvegicus)
To produce a suitable preparation of active compound, 3 parts by weight of active compound were mixed with 2.8 parts by weight of highly dispersible silica and 4.2 parts by weight of talc. Suspensions which contained, in 1 ml of liquid, the amount of active compound to be applied per 100 g of animal weight, were prepared from the above active-compound concentrate, with a little added powdered vegetable gum, by grinding with water. Dosing was effected volumetrically after weighing the test animals. A steel, knob-ended probe was used for oral administration. The evaluation was carried out in each case after the end of the above-mentioned time interval, calculated from the administration of the active compound.
The LD50 values (dose of active compound at which 50% of the treated animals were killed) were determined in the usual manner from the mortality figures of the doses, which were varied in geometrical progression.

For data set [4], the system named is fly larvae (Lucilia cuprina res.). Briefly: Test with parasitic fly larvae. Format: in vivo. Conditions: after 24 hours, read-out: Degree of destruction in %. How it is done:
Solvent: 35 parts by weight of ethylene polyglycol monomethyl ether
Emulsifier: 35 parts by weight of nonylphenol polyglycol ether.
To produce a suitable preparation of active compound, 30 parts by weight of the active substance in question were mixed with the stated amount of solvent which contained the above-mentioned proportion of emulsifier and the concentrate thus obtained was diluted with water to the desired concentration.
About 20 fly larvae (Lucilia cuprina) were introduced into a test tube which contained approximately 2 ml of horse muscle. 0.5 ml of the preparation of active compound was applied to this horse meat. After 24 hours, the degree of destruction was determined in %. 100% means that all the larvae had been killed and 0% means that no larvae had been killed.

The test system of data set [5] is caterpillars of the diamond-back moth (Plutella maculipennis). Briefly: Plutella Test. Format: in vivo. The conditions noted are these: 72 h, after 3 days, read-out: Degree of destruction in % after 3 days; for mortality at 0.004 % strength: 0.004 % active compound; for mortality at 0.02 % strength: 0.02 % active compound; for mortality at 0.1 % strength: 0.1 % active compound; for mortality at 0.0008 % strength: 0.0008 % active compound. The method, then:
(§1) Solvent: 3 parts by weight Acetone
(§2) Emulsifier: 1 part by weight Alkylaryl polyglycol ether
(§3) To produce a suitable preparation of active compound, 1 part by weight of the active compound is mixed with the stated amount of solvent and the stated amount of emulsifier and the concentrate is diluted with water to the desired concentration.
Cabbage leaves (Brassica oleracea) are sprayed with the preparation of the active compound until dew moist and are then infested with caterpillars of the diamond-back moth (Plutella maculipennis).
After the specified periods of time, the degree of destruction is determined as a percentage: 100 % means that all the caterpillars are killed whereas 0 % means that none of the caterpillars are killed.

Data set [6] relates to larvae of mustard beetles (Phaedon cochleariae). Briefly: Phaedon-Larvae-Test. Format: in vivo. Conditions: in Brassica, 72 h, after 3 days, read-out: Degree of destruction in % after 3 days; for mortality at 0.004 % strength: 0.004 % active compound; for mortality at 0.02 % strength: 0.02 % active compound; for mortality at 0.1 % strength: 0.1 % active compound. How it is done:
as §1, §2
To produce a suitable preparation of the particular active compound, 1 part by weight of such active compound is mixed with the stated amount of solvent and the stated amount of emulsifier, and the resulting concentrate is diluted with water to the desired final concentration.
Cabbage leaves (Brassica oleracea) are sprayed with the preparation of the given active compound until dripping wet and then infested with the larvae of mustard beetles (Phaedon cochleariae).
After specified periods of time, the degree of destruction is determined as a percentage: 100 % means that all the beetle larvae are killed, 0 % means that none of the beetle larvae are killed. The active compounds, the concentrations used, the evaluation time and the results obtained can be seen from the following Table 5: […]

Data set [7] has as its system peach aphids (Myzus persicae). Briefly: Myzus Test (contact action). The conditions noted are these: 24 h, after 1 day, read-out: Degree of destruction in % after 1 day; for mortality at 0.02 % strength: 0.02 % active compound; for mortality at 0.1 % strength: 0.1 % active compound. The format is in vivo. The method, then:
as §1, §2, §3
Cabbage plants (Brassica oleracea) which have been heavily infested with peach aphids (Myzus persicae) are sprayed with the preparation of the active compound until dripping wet.
After the specified periods to time, the degree of destruction is determined as a percentage: 100 % means that all the aphids are killed whereas 0 % means that none of the aphids are killed.

The structures appear in SMILES notation. Some results are limits rather than exact numbers.

For `CCOP(=S)(OCC)Oc1ccc(S(=O)(=O)CCl)cc1` [Compound A, O,O-diethyl-O-(4-chloromethylsulfonylphenyl)-thionophosphoric acid ester], the “toxicity towards warm-blooded animals” value in data set [1] is reported as “high toxicity”.
On to `CCOP(=S)(OCC)Oc1ccc(S(=O)(=O)CCl)cc1` [drawing 6, reference compound], for which, in data set [2], the mortality at 0.01 % strength came out at 0% and the mortality at 0.1 % strength was 50%.
Consider `CCCSP(=S)(OCC)Oc1ccc(S(=O)(=O)CCl)cc1Cl` (stereo not drawn) [drawing 7], for which, in data set [2], the mortality at 0.01 % strength is 60% and the mortality at 0.1 % strength was 100%.
In the case of `CCOP(=S)(OCC)Oc1ccc(S(=O)(=O)CCl)cc1` [drawing 8, reference compound], in data set [3], the LD50 at 168 h lay within 2.5 to 5 mg/kg.
On the same count and under the same terms, the same measure for `CCCSP(=S)(OCC)Oc1ccc(S(C)(=O)=O)cc1Cl` (stereo not drawn) [drawing 9]: 50 to 100 mg/kg; for `CCCSP(=S)(OCC)Oc1ccc(S(C)(=O)=O)cc1Br` (stereo not drawn) [drawing 10]: 50 to 100 mg/kg; for `CCCSP(=S)(OCC)Oc1ccc(S(=O)(=O)CCl)cc1` (stereo not drawn) [drawing 11]: roughly 250 mg/kg.
Still for that read-out and setting: the same measure for `CCCSP(=S)(OCC)Oc1ccc(S(=O)(=O)CCl)cc1Cl` (stereo not drawn) [drawing 12]: 100 to 250 mg/kg.
Same read-out and setting: the same measure for `CCCSP(=S)(OCC)Oc1ccc(SC(F)C(=O)OCC)cc1` (stereo not drawn) [drawing 13]: 100 to 250 mg/kg.
In the case of `CCCSP(=S)(OCC)Oc1ccc(S(=O)(=O)CCl)cc1` (stereo not drawn) [drawing 14], in data set [4], the mortality at 1 ppm worked out at 0%, the mortality at 10 ppm is 100%, the mortality at 30 ppm was determined as 100% and the mortality at 100 ppm was found to be 100%.
In the case of `CCCSP(=S)(OCC)Oc1ccc(S(C)(=O)=O)cc1Cl` (stereo not drawn) [drawing 15], in data set [4], the mortality at 1 ppm amounted to 0%, the mortality at 10 ppm is 100%, the mortality at 30 ppm was determined as 100% and the mortality at 100 ppm is 100%. Besides, the mortality at 3 ppm in data set [4] (3 ppm) is 100%.
For the compound `CCCSP(=S)(OCC)Oc1ccc(SC(F)C(=O)OCC)cc1` (stereo not drawn) [drawing 16], in data set [4], the mortality at 10 ppm was 0%, the mortality at 30 ppm is greater than 50% and the mortality at 100 ppm was 100%.
As to `CCOP(=S)(Oc1ccc(S(C)(=O)=O)cc1)SC` (stereo not drawn) [drawing 17, reference compound], in data set [5], the mortality at 0.004 % strength came to 0%, the mortality at 0.02 % strength was 85% and the mortality at 0.1 % strength was 100%.
As for `CCCSP(=S)(OCC)Oc1ccc(S(C)(=O)=O)cc1` (stereo not drawn) [drawing 18], in data set [5], the mortality at 0.004 % strength amounted to 100%, the mortality at 0.02 % strength came to 100% and the mortality at 0.1 % strength was found to be 100%.
As to `CCCSP(=S)(OCC)Oc1ccc(S(=O)(=O)CCl)cc1` (stereo not drawn) [drawing 19], in data set [5], the mortality at 0.004 % strength came out at 100%, the mortality at 0.02 % strength worked out at 100% and the mortality at 0.1 % strength was found to be 100%.
`CCCSP(=S)(OCC)Oc1ccc(S(C)(=O)=O)cc1Cl` (stereo not drawn) [drawing 20]: in data set [5], the mortality at 0.0008 % strength amounted to 100%, the mortality at 0.004 % strength came to 100%, the mortality at 0.02 % strength was 100% and the mortality at 0.1 % strength was determined as 100%.
On to `CCCSP(=S)(OCC)Oc1ccc(Cl)cc1Cl` (stereo not drawn) [drawing 21], for which, in data set [5], the mortality at 0.0008 % strength amounted to 0%, the mortality at 0.004 % strength was determined as 100%, the mortality at 0.02 % strength was 100% and the mortality at 0.1 % strength was 100%.
Consider `CCCSP(=S)(OCC)Oc1ccc(S(C)(=O)=O)cc1Br` (stereo not drawn) [drawing 22], for which, in data set [5], the mortality at 0.0008 % strength is 90%, the mortality at 0.004 % strength was found to be 100%, the mortality at 0.02 % strength stood at 100% and the mortality at 0.1 % strength was determined as 100%.
In the case of `CCCSP(=S)(OCC)Oc1ccc(Cl)cc1Cl` (stereo not drawn) [drawing 23, reference compound], in data set [6], the mortality at 0.004 % strength came to 20%, the mortality at 0.02 % strength was 100% and the mortality at 0.1 % strength came out at 100%.
`CCOP(=S)(Oc1ccc(S(C)(=O)=O)cc1)SC` (stereo not drawn) [drawing 24]: in data set [6], the mortality at 0.004 % strength was 15%, the mortality at 0.02 % strength was 100% and the mortality at 0.1 % strength came to 100%.
As for `CCCSP(=S)(OCC)Oc1ccc(S(C)(=O)=O)cc1` (stereo not drawn) [drawing 25], in data set [6], the mortality at 0.004 % strength is 100%, the mortality at 0.02 % strength is 100% and the mortality at 0.1 % strength is 100%.
On to `CCCSP(=S)(OCC)Oc1ccc(S(C)(=O)=O)cc1Br` (stereo not drawn) [drawing 26], for which, in data set [6], the mortality at 0.004 % strength turned out to be 100%, the mortality at 0.02 % strength came to 100% and the mortality at 0.1 % strength is 100%.
Turning to `CCOP(=S)(Oc1ccc(S(C)(=O)=O)cc1)SC` (stereo not drawn) [drawing 27, reference compound], in data set [7], the mortality at 0.02 % strength was 0% and the mortality at 0.1 % strength was 35%.
The like results for `CCCSP(=S)(OCC)Oc1ccc(S(C)(=O)=O)cc1` (stereo not drawn) [drawing 28] were, in that order, 60% and 100%.
The like results for `CCCSP(=S)(OCC)Oc1ccc(S(C)(=O)=O)cc1Cl` (stereo not drawn) [drawing 29] were, in that order, 90% and 100%.
The like results for `CCCSP(=S)(OCC)Oc1ccc(S(=O)(=O)CCl)cc1` (stereo not drawn) [drawing 30] were, in that order, 70% and 100%.
Take `CCCSP(=S)(OCC)Oc1ccc(S(=O)(=O)CCl)cc1Cl` (stereo not drawn) [drawing 31]: in data set [7], the mortality at 0.02 % strength came to 55% and the mortality at 0.1 % strength is 100%.
